From patent publication US20030113814A1, “Identification of modulators of gpr55 activity” (priority 2002, published 2003)

How the values were obtained:
[1] = system: control cells transformed with the vector p426GPD in combination with Gpa1/Gα13 and therefore lacking GPR55; test: Yeast reporter gene assay in control cells transformed with vector p426GPD (lacking GPR55); assay type: cell-based, Saccharomyces cerevisiae; settings: data not shown
Excerpt: A system of yeast strains MMY14-MMY24 has been described previously (Olesnicky et al, EMBO J. 18, 2756-2763, 1999, Brown et al, Yeast 16, 11-22, 2000). These strains contain a series of genetic modifications to enable coupling of heterologously expressed receptors to the expression of two reporter genes, via the endogenous yeast pheromone response signal transduction pathway. Importantly, the gene encoding the endogenous yeast pheromone receptor, STE2, has been deleted from these strains such that cells containing p426GPD-GPR55 will express GPR55 protein in place of Ste2 receptor protein. Furthermore, the gene encoding the G-protein α-subunit involved in the pheromone response, GPA1, has been deleted from these strains. To enable receptor coupling in strains MMY14-24, plasmid constructs encoding modified versions of GPA1 have been stably integrated into the yeast chromosome and are expressed in place of endogenous yeast GPA1. […]
In vivo assays of reporter gene induction were carried out by suspending yeast cells transformed as described above to a density of 0.02 OD600/ml in 200 μl SC-glucose (2%) medium lacking tryptophan, uracil and histidine. […] Plates were incubated for 24 hours at 30° C. without agitation, and absorbance at 570 nm was determined using a Spectrofluor microtitre plate reader (Tecan).

Human GPR55 = target: T1, Human GPR55 (Homo sapiens, UniProt Q9Y2T6); test: Yeast FUS1-lacZ/FUS1-HIS3 reporter gene induction assay, yeast expressing p426GPD-GPR55 with Gpa1/Gα chimeras; assay type: cell-based
T1 construct: expressed in transfected cells; host or cells: Saccharomyces cerevisiae strains MMY14-MMY24 (STE2 and GPA1 deleted, Gpa1/Gα chimeras integrated)
T1 sequence (Q9Y2T6 whole entry): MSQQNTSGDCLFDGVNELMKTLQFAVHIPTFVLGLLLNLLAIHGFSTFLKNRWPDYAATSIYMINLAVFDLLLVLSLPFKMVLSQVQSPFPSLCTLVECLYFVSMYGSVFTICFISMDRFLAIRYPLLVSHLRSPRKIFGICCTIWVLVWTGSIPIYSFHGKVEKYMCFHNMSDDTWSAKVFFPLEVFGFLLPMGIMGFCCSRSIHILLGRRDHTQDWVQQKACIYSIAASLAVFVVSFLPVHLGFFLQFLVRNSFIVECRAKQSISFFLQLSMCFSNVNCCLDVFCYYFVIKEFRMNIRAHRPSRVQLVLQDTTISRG
Excerpt: These strains contain a series of genetic modifications to enable coupling of heterologously expressed receptors to the expression of two reporter genes, via the endogenous yeast pheromone response signal transduction pathway. Importantly, the gene encoding the endogenous yeast pheromone receptor, STE2, has been deleted from these strains such that cells containing p426GPD-GPR55 will express GPR55 protein in place of Ste2 receptor protein. Furthermore, the gene encoding the G-protein α-subunit involved in the pheromone response, GPA1, has been deleted from these strains. To enable receptor coupling in strains MMY14-24, plasmid constructs encoding modified versions of GPA1 have been stably integrated into the yeast chromosome and are expressed in place of endogenous yeast GPA1. […] Generally, the modifications made to Gpa1 facilitate coupling of heterologously expressed receptors to the yeast pheromone response pathway.
In vivo assays of reporter gene induction were carried out by suspending yeast cells transformed as described above to a density of 0.02 OD600/ml in 200 μl SC-glucose (2%) medium lacking tryptophan, uracil and histidine. This medium was supplemented with 10 mM 3-aminotriazole and the β-galactosidase (lacZ) substrate chlorophenolred-β-D-galactopyranoside (CPRG; Boehringer Mannheim) to a concentration of 0.1 mg/ml. […] To visualise the yellow to red colour change reaction occurring on degradation of CPRG due to β-galactosidase, the medium was buffered to pH 7 with 0.1 M sodium phosphate. The assay was conducted in flat-bottomed sterile 96-well microtitre plates. Plates were incubated for 24 hours at 30° C. without agitation, and absorbance at 570 nm was determined using a Spectrofluor microtitre plate reader (Tecan).

EDG1 = target: T2, EDG1 (Homo sapiens, UniProt P21453); test: Yeast reporter gene assay with unrelated receptor; assay type: cell-based
T2 construct: expressed in transfected cells; host or cells: Saccharomyces cerevisiae reporter strain (inferred from context)
T2 sequence (P21453 whole entry): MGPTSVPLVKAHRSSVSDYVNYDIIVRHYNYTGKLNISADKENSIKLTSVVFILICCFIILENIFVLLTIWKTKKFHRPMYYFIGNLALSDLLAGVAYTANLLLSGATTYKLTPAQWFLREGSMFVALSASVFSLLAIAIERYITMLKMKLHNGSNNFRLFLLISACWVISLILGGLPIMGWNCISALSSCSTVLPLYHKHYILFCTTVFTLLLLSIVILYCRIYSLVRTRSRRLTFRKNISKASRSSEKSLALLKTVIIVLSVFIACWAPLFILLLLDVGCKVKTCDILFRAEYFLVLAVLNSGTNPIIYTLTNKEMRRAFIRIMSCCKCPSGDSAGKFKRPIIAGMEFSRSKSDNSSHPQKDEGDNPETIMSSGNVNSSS

| Compound | increase in reporter gene activity in control cells [1] | agonism at GPR 55 (Human GPR55; GPR 55 expressed in yeast containing Gpa1/GαI3, Gαi2 and Gαi3 chimeras (FIG. 3 legend)) | GPR55 activity in strain expressing Gpa1/Gα12 (Human GPR55; Gpa1/Gα12) | GPR55 activity in strains expressing Gpa1/Gαi2 or Gpa1/Gαi3 (Human GPR55; Gpa1/Gαi2 or Gpa1/Gαi3 (FIG. 3)) | reporter gene activity (Human GPR55; yeast co-expressing p426GPD-GPR55 and Gpa1/Gα13, response dependent on concentration (FIG. 3)) | activation of GPR55 (Human GPR55; yeast reporter assay) | activation of unrelated receptors (EDG1) (EDG1) [fold over background] | activity at GPR55 (Human GPR55; tested at GPR55 in yeast, data not shown) |
| --- | --- | --- | --- | --- | --- | --- | --- | --- |
| Cc1c(C(=O)NN2CCCCC2)nn(-c2ccc(Cl)cc2Cl)c1-c1ccc(I)cc1 [AM251, N-(piperidin-1-yl)-5-(4-iodophenyl)-1-(2,4-dichlorophenyl)-4-methyl-1H-pyrazole-3-carboxamide] | not observed | acts as an agonist | Activity has also been observed | weaker activities | significant increase | up to 60 fold over background | 1.3 |  |
| Cc1c(C(=O)NN2CCOCC2)nn(-c2ccc(Cl)cc2Cl)c1-c1ccc(I)cc1 [AM281, 1-(2,4-dichlorophenyl)-5-(4-iodophenyl)-4-methyl-N-4-morpholinyl-1H-pyrazole-3-carboxamide] |  |  |  |  |  |  |  | appeared active |
